# pIC50, pKd: −log10 of the molar value.
# Columns and labels:
# [1] = target: GDP-bound KRAS wild-type protein (Homo sapiens, UniProt P01116); test: Binding to KRAS by surface plasmon resonance (SPR), dissociation constant KD
# How it was run: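 Read-out is KD from 1:1 fitting of single-cycle kinetics sensorgrams, blank-cycle and reference-surface corrected. Proteins were GDP-loaded, biotinylated Avi-fusions freshly captured each cycle at roughly 100–300 RU. Runs were at 30°C in HBS pH 7.4 with MgCl2, GDP and 4% DMSO.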
# [2] = target: GDP-bound NRAS wild-type protein (Homo sapiens, UniProt P01111); test: Binding to NRAS by surface plasmon resonance (SPR), KD and KD ratio to KRAS
# How it was run: (§1)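 Measured at 30°C: SPR with GDP-loaded, E. coli-expressed biotin-Avi RAS captured (~100–300 RU), ascending 75 s compound injections, HBS pH 7.4 with GDP, MgCl2, 4% DMSO. KD from 1:1 fit.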
# [3] = target: HRAS wild-type protein (Homo sapiens, UniProt P01112); test: Binding to HRAS by surface plasmon resonance (SPR), KD and KD ratio to KRAS
# How it was run: as §1
# [4] = test system: human lung cancer strain NCI-H441; type: cell-based
# How it was run: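 Signal came from […] measured per well once the reagent was added. Beforehand, cells were cultured at 37°C and 5% carbon dioxide on a compound series serially diluted in dimethyl sulfoxide.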
# [5] = Single Cycle Kinetics, 1:1 binding model
# [6] = ratio of the KD value with respect to GDP-bound NRAS wild-type protein to the KD value with respect to KRAS
# [7] = ratio of the KD value with respect to HRAS wild-type protein to the KD value with respect to KRAS
# [8] = ratio of KD for GDP-bound NRAS wild-type protein to KD for KRAS
# [9] = ratio of KD for HRAS wild-type protein to KD for KRAS
# Sequence of HRAS wild-type protein (P01112 whole entry): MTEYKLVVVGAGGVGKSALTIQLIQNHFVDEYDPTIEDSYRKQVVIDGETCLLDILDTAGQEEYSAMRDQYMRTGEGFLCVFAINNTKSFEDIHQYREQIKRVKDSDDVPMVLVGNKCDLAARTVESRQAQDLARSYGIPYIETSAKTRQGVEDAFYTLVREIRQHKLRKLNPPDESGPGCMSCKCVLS
# Sequence of GDP-bound KRAS wild-type protein (P01116 1-188 isoform P01116-2): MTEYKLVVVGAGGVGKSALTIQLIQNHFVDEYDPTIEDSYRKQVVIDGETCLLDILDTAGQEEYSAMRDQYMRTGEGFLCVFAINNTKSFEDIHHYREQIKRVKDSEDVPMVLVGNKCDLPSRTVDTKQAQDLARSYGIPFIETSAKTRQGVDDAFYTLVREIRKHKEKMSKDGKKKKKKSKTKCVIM
# Sequence of GDP-bound NRAS wild-type protein (P01111 whole entry): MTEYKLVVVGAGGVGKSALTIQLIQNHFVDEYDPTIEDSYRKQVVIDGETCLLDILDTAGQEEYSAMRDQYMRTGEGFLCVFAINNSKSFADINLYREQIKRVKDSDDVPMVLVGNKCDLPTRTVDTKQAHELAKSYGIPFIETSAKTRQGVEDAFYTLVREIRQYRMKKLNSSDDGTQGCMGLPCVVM
SMILES,pIC50 [4],pKd ([1]; 1:1 binding model),"NRAS /KRAS [2, 8]","HRAS /KRAS [3, 9]",further results
CCC[C@@H]1C[C@H]2C(=O)NC3(CCCC3)C(=O)N(C)[C@@H](C3CCCC3)C(=O)N(C)[C@H](C(=O)N(C)C)CC(=O)N(C)[C@@H](CC(C)C)C(=O)N[C@@H]([C@@H](C)CC)C(=O)N(C)CC(=O)N(C)[C@H]3C/C=C\CCN(C3=O)[C@@H](Cc3ccc(C)cc3)C(=O)N(C)CC(=O)N[C@@H](CCc3cc(F)c(C(F)(F)F)c(F)c3)C(=O)N2C1 [PP2193],7.48,,,,"pKd [1, 5]: 9.39; NRAS /KRAS [2, 6]: A (a compound having 10 or more and less than 20 is denoted as A); HRAS /KRAS [3, 7]: A (a compound having 10 or more and less than 20 is denoted as A)"
CCO[C@@H]1C[C@H]2C(=O)NC3(CC(C)(C)C3)C(=O)N(C)[C@@H](C3CCCC3)C(=O)N(C)[C@H](C(=O)N(C)CC)CC(=O)N(C)[C@@H]([C@@H](C)OC)C(=O)N[C@@H]([C@@H](C)CC)C(=O)N(C)CC(=O)N(C)[C@H]3C/C=C\CCN(C3=O)[C@@H](Cc3ccc(C(F)(F)F)cc3)C(=O)N(C)CC(=O)N[C@@H](CCc3cc(F)c(C(F)(F)F)c(F)c3)C(=O)N2C1 [PP3160],7.88,10.15,A (a compound having 10 or more and less than 20 is denoted as A),A (a compound having 10 or more and less than 20 is denoted as A),
CCC(CC)[C@H]1C(=O)N(C)[C@H](C(=O)N(C)C)CC(=O)N(C)[C@@H](COC)C(=O)N[C@@H]([C@@H](C)CC)C(=O)N(C)CC(=O)N(C)[C@H]2C/C=C\CCN(C2=O)[C@@H](Cc2ccc(C)cc2)C(=O)N(C)CC(=O)N[C@@H](CCc2ccc(Cl)c(Cl)c2)C(=O)N2CCCCC[C@H]2C(=O)NC2(CC(C)(C)C2)C(=O)N1C [PP2974],7.41,8.89,A (a compound having 10 or more and less than 20 is denoted as A),A (a compound having 10 or more and less than 20 is denoted as A),
CC[C@H](C)[C@@H]1NC(=O)[C@H](CC(C)C)N(C)C(=O)C[C@@H](C(=O)N2C[C@@H](C)O[C@@H](C)C2)N(C)C(=O)[C@H](C2CCCC2)N(C)C(=O)C2(CCCC2)NC(=O)[C@@H]2CCCN2C(=O)[C@H](CCc2ccc(C(F)(F)F)c(Cl)c2)NC(=O)CN(C)C(=O)[C@H](Cc2ccc(F)cc2)N2CCCCC[C@@H](C2=O)N(C)C(=O)CN(C)C1=O [PP1151],7.01,,,,"pKd [1, 5]: 9.19; NRAS /KRAS ([2]; ratio of KD with respect to GDP-bound NRAS wild-type protein to KD with respect to KRAS): B (a compound having 3 or more and less than 10 is denoted as B); HRAS /KRAS ([3]; ratio of KD with respect to HRAS wild-type protein to KD with respect to KRAS): B (a compound having 3 or more and less than 10 is denoted as B)"
CCCC[C@H]1C(=O)N[C@@H]([C@@H](C)CC)C(=O)N(C)CC(=O)N(C)[C@H]2C/C=C\CCN(C2=O)[C@@H](Cc2ccc(C)cc2)C(=O)N(C)CC(=O)N[C@@H](CCc2cc(F)c(C(F)(F)F)c(F)c2)C(=O)N2C[C@H](OCC)C[C@H]2C(=O)NC2(CC(C)(C)C2)C(=O)N(C)[C@@H](C2CCCC2)C(=O)N(C)[C@H](C(=O)N(C)C)CC(=O)N1C [PP2800],8.10,10.25,A (a compound having 10 or more and less than 20 is denoted as A),A (a compound having 10 or more and less than 20 is denoted as A),
CCC[C@H]1C(=O)N[C@@H]([C@@H](C)CC)C(=O)N(C2CC2)CC(=O)N(C)[C@H]2C/C=C\CCN(C2=O)[C@@H](Cc2ccc(C)cc2)C(=O)N(C)CC(=O)N[C@@H](CCc2ccc(C(F)(F)F)c(CC)c2)C(=O)N2C[C@H](OCC)C[C@H]2C(=O)NC2(CC(C)(C)C2)C(=O)N(C)[C@@H](C2CCCC2)C(=O)N(C)[C@H](C(=O)N(C)C)CC(=O)N1C [PP2870],7.94,9.24,A (a compound having 10 or more and less than 20 is denoted as A),A (a compound having 10 or more and less than 20 is denoted as A),
CCO[C@@H]1C[C@H]2C(=O)NC3(CCC3)C(=O)N(C)[C@@H](C3CCCC3)C(=O)N(C)[C@H](C(=O)N(C)CC)CC(=O)N(C)[C@@H](CC(C)C)C(=O)N[C@@H]([C@@H](C)CC)C(=O)N(C)CC(=O)N(C)[C@H]3C/C=C\CCN(C3=O)[C@@H](Cc3ccc(C(F)(F)F)cc3)C(=O)N(C)CC(=O)N[C@@H](CCc3ccc(C(F)(F)F)c(Cl)c3)C(=O)N2C1 [PP2847],8.14,10.08,A (a compound having 10 or more and less than 20 is denoted as A),A (a compound having 10 or more and less than 20 is denoted as A),
CC[C@H](C)[C@@H]1NC(=O)[C@H](CC2CCC2)N(C)C(=O)C[C@@H](C(=O)N(C)C)N(C)C(=O)[C@H](C2CCCC2)N(C)C(=O)C2(CCC2)N(C)C(=O)[C@@H]2C[C@@H](C)CN2C(=O)[C@H](CCc2cc(F)c(C(F)(F)F)c(F)c2)NC(=O)CN(C)C(=O)[C@H](Cc2ccc(C)cc2)N2CC/C=C\C[C@@H](C2=O)N(C)C(=O)CN(C)C1=O [PP1803],8.12,,,,"pKd [1, 5]: 10.00; NRAS /KRAS ([2]; ratio of KD value for GDP-bound NRAS wild-type protein to KD value for KRAS (SPR)): A (a compound having 10 or more and less than 20 is denoted as A); HRAS /KRAS ([3]; ratio of KD value for HRAS wild-type protein to KD value for KRAS (SPR)): B (a compound having 3 or more and less than 10 is denoted as B)"
CCO[C@@H]1C[C@H]2C(=O)NC3(CC(C)(C)C3)C(=O)N(C)[C@@H](C3CCCC3)C(=O)N(C)[C@H](C(=O)N(C)C)CC(=O)N(C)[C@@H]([C@H](C)OC)C(=O)N[C@@H]([C@@H](C)CC)C(=O)N(C3CC3)CC(=O)N(C)[C@H]3C/C=C\CCN(C3=O)[C@@H](Cc3ccc(C(F)(F)F)cc3)C(=O)N(C)CC(=O)N[C@@H](CCc3ccc(C(F)(F)F)c(Cl)c3)C(=O)N2C1 [PP3177],7.67,9.31,A (a compound having 10 or more and less than 20 is denoted as A),A (a compound having 10 or more and less than 20 is denoted as A),
C#CC[C@H]1C(=O)N[C@@H]([C@@H](C)CC)C(=O)N(C)CC(=O)N(C)[C@H]2C/C=C\CCN(C2=O)[C@@H](Cc2ccc(C(F)(F)F)cc2)C(=O)N(C)CC(=O)N[C@@H](CCc2ccc(C(F)(F)F)c(OC)c2)C(=O)N2C[C@@H](C)C[C@H]2C(=O)NC2(CCC2)C(=O)N(C)[C@@H](C2CCCC2)C(=O)N(C)[C@H](C(=O)N(C)CCC)CC(=O)N1C [PP2063],7.87,,,,"pKd [1, 5]: 10.05; NRAS /KRAS [2, 6]: AA (a compound having 20 or more is denoted as AA); HRAS /KRAS [3, 7]: A (a compound having 10 or more and less than 20 is denoted as A)"
CCO[C@@H]1C[C@H]2C(=O)NC3(CCC3)C(=O)N(C)[C@@H](C3CCCC3)C(=O)N(C)[C@H](C(=O)N(C)C)CC(=O)N(C)[C@@H](Cc3ccccc3C)C(=O)N[C@@H]([C@@H](C)CC)C(=O)N(C)CC(=O)N(C)[C@H]3CCCCCN(C3=O)[C@@H](Cc3ccc(C(F)(F)F)cc3)C(=O)N(C)CC(=O)N[C@@H](CCc3cc(F)c(C(F)(F)F)c(F)c3)C(=O)N2C1 [PP0941],7.19,,B (a compound having 3 or more and less than 10 is denoted as B),B (a compound having 3 or more and less than 10 is denoted as B),pKd ([1]; Single Cycle Kinetics): 8.92
CCO[C@@H]1C[C@H]2C(=O)NC3(CCC3)C(=O)N(C)[C@@H](C3CCCC3)C(=O)N(C)[C@H](C(=O)N3CCOCC3)CC(=O)N(C)[C@@H](Cc3cscn3)C(=O)N[C@@H]([C@@H](C)CC)C(=O)N(C)CC(=O)N(C)[C@H]3CCCCCN(C3=O)[C@@H](Cc3ccc(C(F)(F)F)cc3)C(=O)N(C)CC(=O)N[C@@H](CCc3cc(F)c(C(F)(F)F)c(F)c3)C(=O)N2C1 [PP0855],6.94,,B (a compound having 3 or more and less than 10 is denoted as B),B (a compound having 3 or more and less than 10 is denoted as B),pKd ([1]; Single Cycle Kinetics): 9.08
CC[C@H](C)[C@@H]1NC(=O)[C@H](COC)N(C)C(=O)C[C@@H](C(=O)N2CCOCC2)N(C)C(=O)[C@H](C2CCCC2)N(C)C(=O)C2(CCC2)NC(=O)[C@@H]2CC(F)(F)CN2C(=O)[C@H](CCc2cc(F)c(C(F)(F)F)c(F)c2)NC(=O)CN(C)C(=O)[C@H](Cc2ccc(C(F)(F)F)cc2)N2CCCCC[C@@H](C2=O)N(C)C(=O)CN(C)C1=O [PP0834],7.87,,A (a compound having 10 or more and less than 20 is denoted as A),B (a compound having 3 or more and less than 10 is denoted as B),pKd ([1]; Single Cycle Kinetics): 9.72
CCO[C@@H]1C[C@H]2C(=O)NC3(CC(C)(C)C3)C(=O)N(C)[C@@H](C3CCCC3)C(=O)N(C)[C@H](C(=O)N(C)C)CC(=O)N(C)[C@@H]([C@@H](C)OC)C(=O)N[C@@H]([C@@H](C)CC)C(=O)N(C3CC3)CC(=O)N(C)[C@H]3C/C=C\CCN(C3=O)[C@@H](Cc3ccc(C)cc3)C(=O)N(C)CC(=O)N[C@@H](CCc3ccc(C(F)(F)F)c(Cl)c3)C(=O)N2C1 [PP3212],7.78,9.52,A (a compound having 10 or more and less than 20 is denoted as A),A (a compound having 10 or more and less than 20 is denoted as A),

# Source: patent EP4603105A1, “PHARMACEUTICAL COMPOSITION CONTAINING CYCLIC COMPOUND HAVING SELECTIVE KRAS INHIBITORY EFFECT AGAINST HRAS AND NRAS” (CHUGAI SEIYAKU KABUSHIKI KAISHA, priority 2022, dated 2024)
